Columns and labels:
human α4β2 (LS) = human α4β2 (LS) (Homo sapiens, UniProt P17787+P43681); experiment: Calcium flux inhibition, SH-EP1-human α4β2 maintained at 37° C. (LS); format: cell-based
Description: (§1) SH-EP1-human α4β2 (Eaton et al., 2003), cell lines were obtained from Dr. Ron Lukas (Barrow Neurological Institute). Cells were maintained in proliferative growth phase in Dulbecco's modified Eagle's medium (Invitrogen, Carlsbad, Calif.) with 10% horse serum (Invitrogen), 5% fetal bovine serum (HyClone, Logan Utah), 1 mM sodium pyruvate, 4 mM L-glutamine. For maintenance of stable transfectants, the α4β2 cell media was supplemented with 0.25 mg/mL zeocin and 0.13 mg/mL hygromycin B.
Forty-eight hours prior to each experiment, cells were plated in 96 well black-walled, clear bottom plates (Corning, Corning, N.Y.) at 60-100,000 cells/well. On the day of the experiment, growth medium was gently removed, 200 μL 1×FLIPR Calcium 4 Assay reagent (Molecular Devices, Sunnyvale, Calif.) in assay buffer (20 mM HEPES, 7 mM TRIS base, 4 mM CaCl2, 5 mM D-glucose, 0.8 mM MgSO4, 5 mM KCl, 0.8 mM MgCl2, 120 mM N-methyl D-glucamine, 20 mM NaCl, pH 7.4 for SH-EP1-human α4β2 cells or 10 mM HEPES, 2.5 mM CaCl2, 5.6 mM D-glucose, 0.8 mM MgSO4, 5.3 mM KCl, 138 mM NaCl, pH 7.4 with TRIS-base for all other cell lines) was added to each well and plates were incubated at 37° C. for 1 hour (29° C. for the 29° C.-treated SH-EP1-human α4β2 cells). For inhibition studies, competitor compound (10 pM-10 μM) was added at the time of dye addition. The plates were removed from the incubator and allowed to equilibrate to room temperature. Plates were transferred to a FLIPR Tetra fluorometric imaging plate reader (Molecular Devices) for addition of compound and monitoring of fluorescence (excitation 485 nm, emission 525 nm). The amount of calcium flux was compared to both a positive (nicotine) and negative control (buffer alone). The positive control was defined as 100% response and the results of the test compounds were expressed as a percentage of the positive control. […] (LS), and 20 μM for SH-SY5Y cells or CHO_human α3β4.

human α4β2 (HS) = human α4β2 (HS) (Homo sapiens, UniProt P17787+P43681); experiment: Calcium flux inhibition, SH-EP1-human α4β2 treated at 29° C. (HS); format: cell-based
Description: as §1
(§2) Forty-eight hours prior to each experiment, cells were plated in 96 well black-walled, clear bottom plates (Corning, Corning, N.Y.) at 60-100,000 cells/well. On the day of the experiment, growth medium was gently removed, 200 μL 1×FLIPR Calcium 4 Assay reagent (Molecular Devices, Sunnyvale, Calif.) in assay buffer (20 mM HEPES, 7 mM TRIS base, 4 mM CaCl2, 5 mM D-glucose, 0.8 mM MgSO4, 5 mM KCl, 0.8 mM MgCl2, 120 mM N-methyl D-glucamine, 20 mM NaCl, pH 7.4 for SH-EP1-human α4β2 cells or 10 mM HEPES, 2.5 mM CaCl2, 5.6 mM D-glucose, 0.8 mM MgSO4, 5.3 mM KCl, 138 mM NaCl, pH 7.4 with TRIS-base for all other cell lines) was added to each well and plates were incubated at 37° C. for 1 hour (29° C. for the 29° C.-treated SH-EP1-human α4β2 cells). For inhibition studies, competitor compound (10 pM-10 μM) was added at the time of dye addition. The plates were removed from the incubator and allowed to equilibrate to room temperature. Plates were transferred to a FLIPR Tetra fluorometric imaging plate reader (Molecular Devices) for addition of compound and monitoring of fluorescence (excitation 485 nm, emission 525 nm). The amount of calcium flux was compared to both a positive (nicotine) and negative control (buffer alone). The positive control was defined as 100% response and the results of the test compounds were expressed as a percentage of the positive control. For inhibition studies, the agonist nicotine was used at concentrations of 1 μM for SH-EP1-human α4β2 treated at 29° C. (HS), 10 μM for SH-EP1-human α4β2 maintained at 37° C. (LS), and 20 μM for SH-SY5Y cells or CHO_human α3β4.

Nicotinic, human α7 = target: T1, Nicotinic, human α7 (Homo sapiens, UniProt P36544); experiment: Competition binding, human α7 nicotinic receptor (CHO human α7 membranes); details: [3H]TC-12018 0.5 nM
T1 construct: host or cells: CHO
Description: (§3) CHO-human α7 cells (obtained from ChanTest, Cleveland, Ohio, catalog #CT6201) were maintained in proliferative growth phase in Ham's F12 (VWR) with 10% fetal bovine serum (Invitrogen), 0.25 mg/mL geneticin; 0.4 mg/ml zeocin. The amino acid sequences encoded by the transfected cDNA constructs used to generate the CHO-human α7 cells are identical to the translated sequences for GenBank accession numbers NM_000746.4 (α7) and NM_024557.4 (hRIC3).
(§4) Cells were harvested in ice-cold PBS, pH 7.4, then homogenized with a Polytron (Kinematica GmbH, Switzerland). Homogenates were centrifuged at 40,000 g for 20 minutes (4° C.). The pellet was re-suspended in PBS and protein concentration determined using the Pierce BCA Protein Assay kit (Pierce Biotechnology, Rockford, Ill.).
Binding to nicotinic receptors was assayed on membranes using standard methods adapted from published procedures (Lippiello and Fernandes 1986; Davies et al., 1999). […] Filters were washed 3 times with ice-cold assay buffer and the retained radioactivity was determined by liquid scintillation counting.
Binding data were expressed as percent total control binding. […] Ki was calculated using the Cheng-Prusoff equation (Cheng and Prusoff, 1973).

Nicotinic, human α3β4 = target: T2, Nicotinic, human α3β4 (Homo sapiens, UniProt P30926+P32297); experiment: Competition binding, human α3β4 nicotinic receptor (CHO human α3β4 membranes)
T2 construct: host or cells: CHO
Description: as §3, with “α3β4” for “α7”, “#CT6021)” for “#CT6201)”, “NM_000743.2” for “NM_000746.4 (α7)”, “NM_000750.3, respectively.” for “NM_024557.4 (hRIC3).”
as §4
(§5) Binding to nicotinic receptors was assayed on membranes using standard methods adapted from published procedures (Lippiello and Fernandes 1986; Davies et al., 1999). In brief, membranes were reconstituted from frozen stocks and incubated for 2 h on ice in 150 μl assay buffer (50 mM Tris, 154 mM NaCl, pH 7.4) in the presence of competitor compound (0.001 nM to 100 μM) and radioligand. [^3H]-nicotine (L-(−)-[N-methyl-^3H]-nicotine, 69.5 Ci/mmol, Perkin-Elmer Life Sciences, Waltham, Mass.) was used for human α4β2 binding studies. [^3H]-epibatidine (52 Ci/mmol, Perkin-Elmer Life Sciences) was used for binding studies at the other nicotinic receptor subtypes. Incubation was terminated by rapid filtration on a multimanifold tissue harvester (Brandel, Gaithersburg, Md.) using GF/B filters presoaked in 0.33% polyethyleneimine (w/v) to reduce non-specific binding. Filters were washed 3 times with ice-cold assay buffer and the retained radioactivity was determined by liquid scintillation counting.
(§6) Binding data were expressed as percent total control binding. Replicates for each point were averaged and plotted against the log of drug concentration. The IC50 (concentration of the compound that produces 50% inhibition of binding) was determined by least squares non-linear regression using GraphPad Prism software (GraphPAD, San Diego, Calif.). Ki was calculated using the Cheng-Prusoff equation (Cheng and Prusoff, 1973).

Nicotinic, human α4β2 = Nicotinic, human α4β2 (Homo sapiens, UniProt P17787+P43681); experiment: Competition binding, human α4β2 nicotinic receptor ([3H]nicotine)
Description: as §1, §4, §5, §6

human α3β4 = target: T3, human α3β4 (Homo sapiens, UniProt P30926+P32297); experiment: Calcium flux inhibition, CHO-human α3β4 cells; format: cell-based
T3 construct: host or cells: CHO
Description: as §3, with “α3β4” for “α7”, “#CT6021)” for “#CT6201)”, “NM_000743.2” for “NM_000746.4 (α7)”, “NM_000750.3, respectively.” for “NM_024557.4 (hRIC3).”
as §2

Compound: CC[C@@]12CCC[C@]1(NC)[C@H]1CC[C@@H]2C1
- IC50 (human α4β2 (LS)): 5 µM
- Emax (human α4β2 (LS); read-out: Human α4β2 Ca Flux Imax [37C/HS]): 93%
- IC50 (human α4β2 (HS)): 0.6 µM
- Human α4β2 Ca Flux Imax [29C/HS] (human α4β2 (HS); 29° C.-treated cells (HS), nicotine 1 μM): 98 % inh
- Ki (Nicotinic, human α7): 79 µM
- Ki (Nicotinic, human α3β4): 56 µM
- Ki (Nicotinic, human α4β2): 26 µM
- IC50 (human α3β4): 0.17 µM
- Human CHO α3β4 Ca Flux Imax (human α3β4; nicotine 20 μM): 97 % inh

— patent US20140288185A1, “NICOTINIC RECEPTOR NON-COMPETITIVE MODULATORS” (Targacept, Inc., priority 2011, published 2014)
